Consider 15 molecules from US6534278B1, “Screening for antibiotics” (priority 1997, dated 2003).

Converted amounts (≈) assume the structure as drawn. Where a SMILES comes first, the peptide text is derived from it. Bridges are numbered along the chain shown (N, C = ends). [ ]: non-standard residue; d: D form. The star is where a group is joined. Ileψ(thiazoline)Cys = CC[C@H](C)[C@H](N)C1=N[C@H](C(=O)*)CS1; dOrn = NCCC[C@@H](N)C(=O)O; Dab = NCC[C@H](N)C(=O)O Some results are limits rather than exact numbers.

For assay [1], the system named is envA-cells containing the pNU305 plasmid. In words: microbe, parasite or virus in culture. How it is done: The optical density (OD) of each reaction mixture was measured at 655 nm. The lowest concentration of ramoplanin for which the OD reading was zero was taken to be the MIC.
Assay [2] has as its system E. coli strain D22 carrying plasmid pNU305 (ampC and ampR genes from Citrobacter freundii, envA-). Briefly: β-lactamase induction screen (nitrocefin, OD 490 nm). The class given is cell-based. The following applies: for [Induction] (limit of detection of β-lactamase induction): lowest concentration at which β-lactamase induction begins to increase, average over trials. How it is done: Screening Strain: E. coli strain D22 carrying plasmid pNU305 which contains the ampC and ampR genes from Citrobacter freundii, the envA-allele, a colEI origin of replication, and a tetracycline resistance determinant was grown in Luria Broth (LB; 5 g yeast extract, 10 g tryptone, and 10 g sodium chloride per liter of purified water) supplemented with E salts (400 μl E salts per 100 ml LB; the E salts contained-10 g magnesium sulfate heptahydrate, 100 g citric acidmonohydrate, 500 g anhydrous dibasic potassium phosphate, and 175 g of monosodium monoammonium phosphate tetrahydrate per liter of purified water).
Reaction Buffer: Nitrocefin was dissolved in dimethylsulfoxide (DMSO) to a concentration of 25 mg/ml and stored in 1 ml aliquots at −80° C. To prepare a reaction buffer, one of the nitrocefin/DMSO aliquots was added to 50 ml Z buffer with detergents (16.1 g dibasic sodium phosphate heptahydrate, 5.5 g monobasic sodium phosphate monohydrate, 0.75 g potassium chloride, 246 mg magnesium sulfate heptahydrate, 200 mg CTAB, and 100 mg sodium deoxycholate per liter, with the pH adjusted to 7.0) and the mixture was vortexed vigorously. The resulting suspension was filtered through Q5 filter paper (Fisher, Cat. No. 09-790-2e) to remove insoluble material. The filtered reaction buffer was stored at −80° C. until it was needed.
Growth Regimen: A single colony of the E. coli (i.e., a starter colony) was streaked onto an LB plate (with tetracycline) and incubated overnight at 37° C. Cells from the starter colony were then used to inoculate multiple colonies in LB (without tetracycline) to give a cell density no higher than 0.05 OD at 650 nm. The cells were grown at 37° C. under aerating conditions (i.e., shaken at 200 rpm in Erlenmeyer flasks having a volume of at least 10 times that of the culture.
Screening: When the cells had grown to a cell density of 0.25 to 0.8 OD at 650 nm, the culture was diluted to 0.25 OD. 80 μl of the diluted culture was added to each well of a microtiter plate containing 20 μl samples from a simulated natural product library, using an automated liquid dispensing robot from Titrtek (Huntsville, Ala.).
A positive control compound (25 μg/ml fosfomycin) was added to some of the wells and other wells were left untreated, as negative control samples. The samples were incubated on the plate for one hour at 37° C. without shaking.
Assay: 10 μl aliquots were transferred from each well to a second microtiter plate, using a Quadra 96 Model 320 robot (TomTec, Hamden, Conn.). 90 μl of the reaction buffer prepared above was added to each well using a automated liquiddispensing robot (Titrtek, Huntsville, Ala.). The OD of the samples was immediately read at […] in a plate reader (Biorad, Model 3550) to obtain zero point β-lactamase levels. The OD was measured again after incubating the plates at room temperature for 90 minutes (room temperature near 30° C.) or 120 minutes (room temperature below 30° C.).
Data Analysis: An induction value, I, was determined for each sample according to the following formula: I=(OD of sample—median OD)/(OD of induced cells—median OD); where the median OD was determined for each plate and the OD of induced cells was defined as the average of the readings from the control wells exposed to the 25 μg/ml fosfomycin. […] Any sample having I≧0.2 was considered to be positive. Since the assay is calorimetric, the zero-point levels were subtracted from the OD readings.
The same mixtures were also screened for increased β-lactamase using the new methods. The β-lactamase produced was plotted against the logarithm of ramoplanin concentration. FIGS. 3A and 3B show two examples of such. plots. As shown by the leftmost 6 and 7 solid black circles in FIGS. 3A and 3B, respectively, these plots show no effect of low concentrations of added ramoplanin on β-lactamase induction, up to a ramoplanin concentration of about 0.8 to 1.6 μg/ml. At this level, the β-lactamase induction level began to increase. […]

[3] abbreviates: lowest concentration with OD 655 nm of zero, 5×10^5 cells/ml, 18 hours, 37° C.

In assay [1] (Escherichia coli, 18 h), `CCCCCCCCCCCCOS(=O)(=O)[O-].[Na+]` [Sodium dodecyl sulfate] yielded an MIC of 2 µg/mL. The “[Induction] (limit of detection of β-lactamase induction)” value in assay [2] is 4 µg/mL.
On to `CC(C)C[C@@H]1NC(=O)[C@@H](Cc2ccccc2)NC(=O)[C@H](CCN)NC(=O)[C@@H](NC(=O)[C@H](CCN)NC(=O)[C@@H](N)[C@@H](C)O)CCNC(=O)[C@H]([C@@H](C)O)NC(=O)[C@H](CCN)NC(=O)[C@H](CCN)NC1=O` [Polymyxin B nonapeptide] (H-T[Dab][Dab][Dab][dF]L[Dab][Dab]T; lactam 3-C; N-terminus assumed), for which the MIC in assay [1] (setting [3]) was >100 µg/mL. Besides, the “[Induction] (limit of detection of β-lactamase induction)” value in assay [2] came out at 6.3 µg/mL.
In assay [1] (setting [3]), Polymyxin B sulfate came in with an MIC of 0.4 µg/mL. Also, the “[Induction] (limit of detection of β-lactamase induction)” value in assay [2] stood at 0.2 µg/mL.
In the case of `CN[C@H](CC(C)C)C(=O)N[C@H]1C(=O)N[C@@H](CC(N)=O)C(=O)N[C@H]2C(=O)N[C@H]3C(=O)N[C@H](C(=O)N[C@H](C(=O)O)c4cc(O)cc(O)c4-c4cc3ccc4O)[C@H](O)c3ccc(c(Cl)c3)Oc3cc2cc(c3O[C@@H]2O[C@H](CO)[C@@H](O)[C@H](O)[C@H]2O[C@H]2C[C@](C)(N)[C@H](O)[C@H](C)O2)Oc2ccc(cc2Cl)[C@H]1O` [Vancomycin], the MIC in assay [1] (Escherichia coli, 18 h) turned out to be 10 µg/mL (≈ 6.9 µM). Moreover, the “[Induction] (limit of detection of β-lactamase induction)” value in assay [2] was determined as 4 µg/mL.
The molecule Moenomycin returned an MIC in assay [1] (setting [3]) of 2 µg/mL. Besides, in assay [2], the “[Induction] (limit of detection of β-lactamase induction)” value turned out to be 1 µg/mL.
In the case of `N[C@@H]1CON=C1O` [Cycloserine], the MIC in assay [1] (Escherichia coli, 18 h) stood at 12.5 µg/mL (≈ 122 µM). Moreover, the “[Induction] (limit of detection of β-lactamase induction)” value in assay [2] worked out at 20 µg/mL.
Taken in the same sequence, the figures for `C[C@@H]1O[C@@H]1P(=O)(O)O` [Fosfomycin] were 0.7 µg/mL (≈ 5.07 µM) and 0.7 µg/mL.
Take Ramoplanin: the MIC in assay [1] (setting [3]) is 20 µg/mL; in assay [1] (lowest concentration with OD 655 nm of zero, 5×10^5 cells/ml, 18 hours, 37° C., listed as ramoplanin), “about 20 μg/ml”. Besides, the “detection concentration times less than the minimum inhibitory concentration (MIC / limit of detection)” value in assay [2] (20/1.8) was “about 11 times”. Also, the “[Induction] (limit of detection of β-lactamase induction)” value in assay [2] is 1.8 µg/mL; in assay [2] (listed as ramoplanin), “about 1.8 μg/ml”.
Molecule `CC[C@H]1OC(=O)[C@H](C)[C@@H](O[C@H]2C[C@@](C)(OC)[C@@H](O)[C@H](C)O2)[C@H](C)[C@@H](O[C@@H]2O[C@H](C)C[C@H](N(C)C)[C@H]2O)[C@](C)(O)C[C@@H](C)C(=O)[C@H](C)[C@@H](O)[C@]1(C)O` [Erythromycin] had an MIC in assay [1] (Escherichia coli, 18 h) of 0.8 µg/mL (≈ 1.09 µM). The “[Induction] (limit of detection of β-lactamase induction)” value in assay [2] was “none”.
In turn, `O=C(O)c1cn(C2CC2)c2cc(N3CCNCC3)c(F)cc2c1=O` [Ciprofloxacin] showed an MIC in assay [1] (Escherichia coli, 18 h) of 0.01 µg/mL (≈ 0.0302 µM). In assay [2], the “[Induction] (limit of detection of β-lactamase induction)” value is “none”.
Molecule `CO[C@H]1/C=C/O[C@@]2(C)Oc3c(C)c(O)c4c(O)c(c(/C=N/N5CCN(C)CC5)c(O)c4c3C2=O)NC(=O)/C(C)=C\C=C\[C@H](C)[C@H](O)[C@@H](C)[C@@H](O)[C@@H](C)[C@H](OC(C)=O)[C@@H]1C` [Rifampicin] had an MIC in assay [1] (Escherichia coli, 18 h) of 0.06 µg/mL (≈ 0.0729 µM).
In assay [1] (setting [3]), `CC[C@H](C)[C@H](N)C1=N[C@H](C(=O)N[C@@H](CC(C)C)C(=O)N[C@H](CCC(=O)O)C(=O)N[C@H](C(=O)N[C@H]2CCCCNC(=O)[C@H](CC(N)=O)NC(=O)[C@@H](CC(=O)O)NC(=O)[C@H](Cc3cnc[nH]3)NC(=O)[C@@H](Cc3ccccc3)NC(=O)[C@H]([C@@H](C)CC)NC(=O)[C@@H](CCCN)NC2=O)[C@@H](C)CC)CS1` [Bacitracin] ({Ileψ(thiazoline)Cys}-L[dE]IK[dOrn]I[dF]H[dD]N; lactam 4-C) gave an MIC of 12.5 µg/mL (≈ 8.79 µM). In addition, the “[Induction] (limit of detection of β-lactamase induction)” value in assay [2] turned out to be 1.6 µg/mL.
Consider `CO[C@@]1(NC(=O)Cc2cccs2)C(=O)N2C(C(=O)O)=C(COC(N)=O)CS[C@@H]21` [Cefoxitin], for which the MIC in assay [1] (Escherichia coli, 18 h) was determined as 7 µg/mL (≈ 16.4 µM). Also, the “[Induction] (limit of detection of β-lactamase induction)” value in assay [2] stood at 2.5 µg/mL.
Triton X-100 returned an MIC in assay [1] (setting [3]) of 500 µg/mL. Moreover, in assay [2], the “[Induction] (limit of detection of β-lactamase induction)” value was 100 µg/mL.
As to `CC[C@@]1([C@@H]2O[C@@H]([C@H]3O[C@@](O)(CO)[C@H](C)C[C@@H]3C)C[C@@H]2C)CC[C@H]([C@]2(C)CC[C@]3(C[C@H](O)[C@@H](C)[C@@H]([C@@H](C)[C@@H](OC)[C@H](C)C(=O)O)O3)O2)O1` [Monensin], the MIC in assay [1] (Escherichia coli, 18 h) is > 100 µg/mL. Besides, the “[Induction] (limit of detection of β-lactamase induction)” value in assay [2] is on record as “none”.
